Data reported in patent publication US10765672B2, “Pharmaceutical formulations of a HIF hydroxylase inhibitor” (FibroGen, Inc., priority 2013, dated 2020).

Assay: Solid state sunlight exposure of Compound A powder, reverse phase HPLC
Assay type: physicochemical
Details: for purity value as measured by reverse phase HPLC: Compound A dry powder
Experimental: Approximately 500 mg of Compound A dry powder was placed in a 1-gallon polyethylene bag and exposed to sunlight for two months consecutively during daylight hours. The powder was in a very thin layer and the bag was shaken often to ensure that all the powder and not just the top layer was exposed to sunlight. A control sample of Compound A powder was stored in an amber vial in the dark for the same amount of time for comparison purposes. […] The light-exposed sample and the control sample were analyzed by HPLC to evaluate differences in their composition. The HPLC method used a reverse phase Zorbax Eclipse XDB-C8, 3.5 μm, 4.6×150 mm column. The mobile phase was comprised of water and acetonitrile mixtures acidified with trifluoroacetic acid. Gradient elution with increasing acetonitrile provided chromatograms of the control sample of Compound A (FIG. 1, before light exposure) and the light-exposed sample of Compound A (FIG. 1, after light exposure) with UV detection at 230 nm.
After exposure to sunlight, a new peak appeared in the chromatogram evidencing a new molecule.

Q: For `Cc1nc(C(=O)NCC(=O)O)c(O)c2ccc(Oc3ccccc3)cc12` [Compound A, [(4-hydroxy-1-methyl-7-phenoxy-isoquinoline-3-carbonyl)-amino]-acetic acid], which “purity value as measured by reverse phase HPLC” value (after exposure to sunlight for two months) is on record?
A: 98.4%

Q: What about the “purity value as measured by reverse phase HPLC” value (before exposure to sunlight) of the same compound?
A: 99.1%

Q: What about the “visual inspection (colour)” value (control sample stored in amber vial in the dark, two months) of the same compound?
A: yellow

Q: What about the “visual inspection (colour)” value (light-exposed sample, two months sunlight) of the same compound?
A: off-white
